# Measurements published in patent US6777427B2, “Tetrahydroquinoline compounds” (priority 2000, dated 2004).
# Tests used:
# [1] = test system: Orchiectomized (ORX) Rats; experiment: Action of increasing prostate weight in orchiectomized (ORX) rats, 8 days; type: in vivo, rat; conditions: for Weight of prostate: ORX SD rats, s.c. once daily for 8 days, DHT 10 mg/kg, Ex. 23 30 mg/kg, ventral prostate wet weight, Mean ± SD
# Method: Testes were removed from 8-week-old male SD rats. […] In an ORX control group (Vehicle), dimethyl sulfoxide diluted with olive oil was used for the test. […] On the next day after final administration, the wet weight of the ventral prostate was measured to evaluate the AR agonistic effect of the compound of the present invention.
# [2] = test system: Orchiectomized (ORX) Rats; experiment: Action of increasing prostate weight and bone mass in orchiectomized (ORX) rats, 4 weeks; type: in vivo, rat; conditions: for Bone mineral density / Prostate weight: ORX SD rats, s.c. once daily, 5 days weekly, 4 weeks, DHT 10 mg/kg, Ex. 23 30 mg/kg, Mean ± SD; for Bone mineral density: right femur
# Method: Orchiectomy was performed in 12-week-old male SD rats. […] In an ORX control group (Vehicle), dimethyl sulfoxide diluted with olive oil was used for the test. […] On the next day after final administration, the wet weight of the ventral prostate was measured to evaluate the AR agonistic effect of the compound of the present invention. On the next day following final administration, moreover, the right femur was removed, and fixed overnight in a 10% neutrally buffered formalin solution.
# [3] = test system: Ovariectomized (OVX) Rats; experiment: Action of increasing bone mass in ovariectomized (OVX) rats, 8 weeks; type: in vivo, rat; conditions: for Bone mineral density: OVX female SD rats, right femur, s.c. once daily, 5 days weekly, 8 weeks from 4 weeks postoperatively, DHT 10 mg/kg, Ex. 23 30 mg/kg, Mean ± SD
# Method: Action of Increasing Bone Mass in Ovariectomized (OVX) Rats
# Ovariectomy was performed in 12-week-old female SD rats. […] In an OVX control group (Vehicle), dimethyl sulfoxide diluted with olive oil was used for the test. […] On the next day after final administration, the right femur was removed, and fixed overnight in a 10% neutrally buffered formalin solution.
# [4] = biological target: T1, Rat Androgen Receptors (Rat AR) (Rattus norvegicus, UniProt P15207); experiment: Test for competitive binding to rat androgen receptors (3H-testosterone displacement, prostate AR fraction); conditions: RBA=100×(IC50 of hydroxyflutamide)/(IC50 of the compound)
# T1 construct: from tissue; host or cells: prostate of orchiectomized 11-week-old male SD rats (100,000 x g supernatant of the homogenate)
# T1 sequence (P15207 1-902): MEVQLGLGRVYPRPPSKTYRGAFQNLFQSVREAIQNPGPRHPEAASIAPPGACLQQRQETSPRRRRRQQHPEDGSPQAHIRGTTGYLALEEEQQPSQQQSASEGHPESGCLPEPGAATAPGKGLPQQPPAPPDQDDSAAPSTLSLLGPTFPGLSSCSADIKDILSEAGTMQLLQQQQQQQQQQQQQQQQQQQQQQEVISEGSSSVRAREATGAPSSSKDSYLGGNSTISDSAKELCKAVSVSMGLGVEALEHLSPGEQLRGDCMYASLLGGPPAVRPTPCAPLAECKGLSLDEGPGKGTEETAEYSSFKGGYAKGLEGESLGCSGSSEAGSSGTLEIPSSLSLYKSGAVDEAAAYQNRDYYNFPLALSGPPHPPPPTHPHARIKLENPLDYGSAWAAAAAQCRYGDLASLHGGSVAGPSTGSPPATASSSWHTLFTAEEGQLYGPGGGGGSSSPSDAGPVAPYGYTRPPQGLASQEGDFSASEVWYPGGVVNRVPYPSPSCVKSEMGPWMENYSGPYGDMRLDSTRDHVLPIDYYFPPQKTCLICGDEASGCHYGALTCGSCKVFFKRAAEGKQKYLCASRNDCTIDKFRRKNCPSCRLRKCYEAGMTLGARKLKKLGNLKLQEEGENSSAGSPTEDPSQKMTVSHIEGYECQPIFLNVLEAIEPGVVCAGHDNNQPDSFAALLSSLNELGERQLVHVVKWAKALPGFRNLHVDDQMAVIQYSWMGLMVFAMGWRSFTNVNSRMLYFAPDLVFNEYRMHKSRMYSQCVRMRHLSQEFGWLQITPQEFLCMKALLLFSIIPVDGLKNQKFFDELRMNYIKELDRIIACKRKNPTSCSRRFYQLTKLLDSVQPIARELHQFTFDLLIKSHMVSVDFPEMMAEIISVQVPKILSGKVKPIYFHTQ
# Method: Test for Competitive Binding to Rat Androgen Receptors (Rat AR)
# Preparation of rat AR fraction: Prostates were harvested into ice-cooled ET buffer (10 mM Tris, 1 mM EDTA, 5 mM DTT, 10 mM sodium molybdate, pH 7.4) 3 days after orchiectomy in 11-week-old male SD rats. The prostate was finely cut, and ET buffer was added, whereafter the mixture was homogenized using a homogenizer. The homogenate was ultracentrifuged (100,000×g, 60 min, 4° C.), and the supernatant was used as a rat AR fraction (hereinafter referred to as ARF).
# Binding test: ^3H-testosterone (hereinafter referred to as ^3H-T) was diluted with ET buffer. Dihydrotestosterone (DHT) was prepared so as to have a concentration (final concentration 1 μM) 400 times the maximum concentration of ^3H-T (2.5 nM). The ^3H-T solution was added to a 1.5 ml tube containing DHT, no DHT, or the test compound with a varying concentration. Further, 200 μg ARF was added to adjust the final volume to 100 μl. The mixture was incubated for 2 hours at 4° C., and then 300 μl of a 0.05% dextran T70-1.0% activated carbon solution was added. The mixture was further incubated for 15 minutes in ice to remove the free ^3H-T. After centrifugation (4° C., 2,500 rpm, 5 min), 275 μl of the supernatant was harvested into a liquid scintillation vial, and 2 ml of clear-sol was added. The mixture was stirred, allowed to stand, and measured for ^3H radioactivity with a liquid scintillation counter. […]
# a: Radioactivity of the sample incorporating the compound of the present invention (^3H-T+compound) b: Radioactivity of the sample free from the compound of the present invention (only ^3H-T: amount of total binding) c: Radioactivity of the sample incorporating DHT (^3H-T+DHT: amount of nonspecific binding) The relative binding inhibition rate (RBA: Relative Binding Affinity) was obtained from the following equation (Endocrinology 138, 863-870, 1997): […]
# male rats = experiment: AR antagonistic effect: inhibition of testosterone propionate-induced prostate weight increase; type: in vivo, rat; conditions: suggested by a Test Example; no data given
# Method: Testes were removed from male rats. From 5 days postoperatively, testosterone propionate and the compound of the present invention were simultaneously administered once daily for one consecutive week by the subcutaneous route. On the next day after final administration, the wet weight of the ventral prostate was measured to evaluate the AR antagonistic effect of the compound of the present invention based on its inhibitory action on testosterone propionate-induced prostate weight increase.
smiles,measurement,setting,value
"C[C@]12CCC(=O)C[C@@H]1CC[C@@H]1[C@@H]2CC[C@]2(C)[C@@H](O)CC[C@@H]12 [DHT, dihydrotestosterone, reference compound]",Weight of prostate,[1],68 ± 16 mg/body weight (100 g)
same,Bone mineral density,[2],130 ± 7 mg/cm^2
same,Prostate weight,[2],150 ± 14 mg/body weight 100 g
same,Bone mineral density,[3],120.8 ± 4.4 mg/cm^2
"CC(=O)OCC(C)(C)C1CC(N(C)C)c2cc([N+](=O)[O-])ccc2N1 (centres unmarked) [Example 9, Acetic acid 2-(4-dimethylamino-6-nitro-1,2,3,4-tetrahydroquinolin-2-yl)-2-methyl-propyl ester]",RBA (Relative Binding Affinity),[4],79
"CN(C)C1CC(C(C)(C)COC(=O)c2ccc(F)cc2)Nc2ccc([N+](=O)[O-])cc21 (centres unmarked) [Example 11, 4-Fluorobenzoic acid 2-(4-dimethylamino-6-nitro-1,2,3,4-tetrahydroquinolin-2-yl)-2-methyl-propyl ester]",RBA (Relative Binding Affinity),[4],98
"CN(C)C1CC(C(C)(C)CO)Nc2ccc([N+](=O)[O-])cc21 (centres unmarked) [Example 23, 2-(4-dimethylamino-6-nitro-1,2,3,4-tetrahydroquinolin-2-yl)-2-methylpropan-1-ol]",Weight of prostate,[1],52 ± 12 mg/body weight (100 g)
same,Effect on prostate weight (in words),"[1]; ORX rats, consecutively administered for 8 days, 30 mg/kg s.c.",significantly increased prostate weights in comparison with the ORX control
same,Bone mineral density,[2],134 ± 6 mg/cm^2
same,Prostate weight,[2],78 ± 10 mg/body weight 100 g
same,Effect on atrophied prostate (in words),"[2]; ORX rats, administered for 4 weeks, 30 mg/kg s.c.",restored the atrophied prostate up to the level of the normal control
same,Effect on bone mineral density (in words),"[2]; ORX rats, administered for 4 weeks, 30 mg/kg s.c., vs control group",significantly increased the decreased bone mineral density
same,Bone mineral density,[3],120.9 ± 3.9 mg/cm^2
same,Effect on bone mineral density (in words),"[3]; OVX rats, administered for 8 weeks, 30 mg/kg s.c.",significantly increased the bone mineral density
"CC(C)(CO)C1CC(NCc2ccccc2)c2cc([N+](=O)[O-])ccc2N1 (centres unmarked) [Example 30, 2-(4-Benzylamino-6-nitro-1,2,3,4-tetrahydroquinolin-2-yl)-2-methylpropan-1-ol]",RBA (Relative Binding Affinity),[4],370
"CCCN(CCC)C1CC(C(C)(C)CO)Nc2ccc([N+](=O)[O-])cc21 (centres unmarked) [Example 33, 2-(4-Di-n-propylamino-6-nitro-1,2,3,4-tetrahydroquinolin-2-yl)-2-methylpropan-1-ol]",AR antagonistic effect (in words),male rats,AR antagonist
"CC(C)(O)C(=O)Nc1ccc([N+](=O)[O-])c(C(F)(F)F)c1 [Hydroxyflutamide, reference compound]",RBA (Relative Binding Affinity),[4],100
